Measured values taken from US9115101B2 (Genentech, Inc., priority 2012, dated 2015).
pIC50: −log10 of the molar value.

Biological target: T1, RORc ligand binding domain (Homo sapiens, UniProt P51449)
T1 construct: host or cells: E. coli
T1 sequence (P51449 269-508 limits assumed): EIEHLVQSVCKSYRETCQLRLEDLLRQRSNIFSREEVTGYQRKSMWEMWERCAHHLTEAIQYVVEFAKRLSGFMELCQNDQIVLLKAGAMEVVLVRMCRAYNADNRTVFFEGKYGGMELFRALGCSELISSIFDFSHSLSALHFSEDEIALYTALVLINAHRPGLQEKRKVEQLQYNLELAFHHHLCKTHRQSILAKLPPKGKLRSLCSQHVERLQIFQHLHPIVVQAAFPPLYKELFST
Assay: In Vitro RORc Ligand Binding Assay (25-[3H]hydroxycholesterol radioligand filtration)
Settings: In Vitro RORc Ligand Binding Assay; Table 4; read-out: RORc IC50

SMILES	pIC50
C[C@H]1CCC(c2ccccc2)S(=O)(=O)N1Cc1ccc(N2CCC(c3nnc[nH]3)CC2)cc1F (single isomer, unassigned) [Example 226]	6.55
CC[C@H]1CCC(c2ccccc2)S(=O)(=O)N1Cc1ccc(N2CCC(n3cnnc3)CC2)cc1F (single isomer, unassigned) [Example 228]	7.68
CC[C@H]1CCC(c2ccccc2)S(=O)(=O)N1Cc1ccc(N2CCC(n3cnnc3)CC2)cc1F (single isomer, unassigned) [Example 229]	6.77
CC[C@H]1CCC(c2ccccc2)S(=O)(=O)N1Cc1ccc(NC2CCN(S(C)(=O)=O)CC2)cc1F (single isomer, unassigned) [Example 239]	8.52
CC[C@H]1CCC(c2ccccc2)S(=O)(=O)N1Cc1ccc(NC2CCN(S(C)(=O)=O)CC2)cc1F (single isomer, unassigned) [Example 240]	8.40
C[C@H]1CCC(c2ccccc2)S(=O)(=O)N1Cc1ccc(N2CCC(c3cn[nH]c3)CC2)cc1F (single isomer, unassigned) [Example 242]	8.40
C[C@H]1CCC(c2ccccc2)S(=O)(=O)N1Cc1ccc(N2CCC(c3cn[nH]c3)CC2)cc1F (single isomer, unassigned) [Example 243]	8.52
C[C@H]1CCC(c2ccccc2)S(=O)(=O)N1Cc1ccc(N2CCC(n3ncnn3)CC2)cc1F (single isomer, unassigned) [Example 244]	7.62
CC(=O)N1CCN(c2ccc(CN3[C@@H](C(C)C)CCC(c4ccccc4)S3(=O)=O)c(F)c2)CC1 (single isomer, unassigned) [Example 246]	7.52

The next lines start with the values.

pIC50	SMILES
7.54	CC(=O)N1CCN(c2ccc(CN3[C@@H](C(C)C)CCC(c4ccccc4)S3(=O)=O)c(F)c2)CC1 (single isomer, unassigned) [Example 247]
8.15	CC(=O)N1CCN(c2ccc(CN3C4CCCC4CC(c4ccccc4)S3(=O)=O)c(F)c2)CC1 (single isomer, unassigned) [Example 248, 1-(4-(4-((2,2-dioxido-3-phenylhexahydro-cyclopenta[c][1,2]thiazin-1(3H)-yl)methyl)-3-fluorophenyl)piper-azin-1-yl)ethanone]
7.43	CS(=O)(=O)N1CCC(Nc2ccc(CN3CC4(CC4)CC(c4ccccc4)S3(=O)=O)c(F)c2)CC1 (single isomer, unassigned) [Example 249, 5-(2-fluoro-4-((1-(methylsulfonyl)piperidin-4-yl)amino)benzyl)-7-phenyl-6-thia-5-azaspiro[2.5]octane 6,6-dioxide]
7.96	CC(=O)N1CCN(c2ccc(CN3C4CCCC4CC(c4ccccc4)S3(=O)=O)c(F)c2)CC1 (single isomer, unassigned) [Example 250, 1-(4-(4-((2,2-dioxido-3-phenylhexahydro-cyclopenta[c][1,2]thiazin-1(3H)-yl)methyl)-3-fluorophenyl)piper-azin-1-yl)ethanone]
6.66	CC(=O)N1CCN(c2ccc(CN3C4CCCC4CC(c4ccccc4)S3(=O)=O)c(F)c2)CC1 (single isomer, unassigned) [Example 251, 1-(4-(4-((2,2-dioxido-3-phenylhexahydro-cyclopenta[c][1,2]thiazin-1(3H)-yl)methyl)-3-fluorophenyl)piper-azin-1-yl)ethanone]
7.17	CC(=O)N1CCN(c2ccc(CN3C4CCCC4CC(c4ccccc4)S3(=O)=O)c(F)c2)CC1 (single isomer, unassigned) [Example 252, 1-(4-(4-((2,2-dioxido-3-phenylhexahydro-cyclopenta[c][1,2]thiazin-1(3H)-yl)methyl)-3-fluorophenyl)piper-azin-1-yl)ethanone]
8.15	CS(=O)(=O)N1CCC(Nc2ccc(CN3CC4(CC4)CC(c4ccccc4)S3(=O)=O)c(F)c2)CC1 (single isomer, unassigned) [Example 253, 5-(2-fluoro-4-((1-(methylsulfonyl)piperidin-4-yl)amino)benzyl)-7-phenyl-6-thia-5-azaspiro[2.5]octane 6,6-dioxide]
